Our source for the Ki values is PMC4560413, “Ethyl Pyruvate Emerges as a Safe and Fast Acting Agent against Trypanosoma brucei by Targeting Pyruvate Kinase Activity” (PLoS ONE, 2015).

Molecules are shown by their SMILES.

This test deals with T1, pyruvate kinase (PK-1 from rabbit muscle) (Oryctolagus cuniculus, UniProt P11974).
T1 construct: gene PKM; purified PK-1 from rabbit muscle
Put plainly: enzyme kinetics, ATP production by luminescence (CellTiter-Glo), competitive model fit. The class given is biochemical.

T1 sequence (P11974 2-531): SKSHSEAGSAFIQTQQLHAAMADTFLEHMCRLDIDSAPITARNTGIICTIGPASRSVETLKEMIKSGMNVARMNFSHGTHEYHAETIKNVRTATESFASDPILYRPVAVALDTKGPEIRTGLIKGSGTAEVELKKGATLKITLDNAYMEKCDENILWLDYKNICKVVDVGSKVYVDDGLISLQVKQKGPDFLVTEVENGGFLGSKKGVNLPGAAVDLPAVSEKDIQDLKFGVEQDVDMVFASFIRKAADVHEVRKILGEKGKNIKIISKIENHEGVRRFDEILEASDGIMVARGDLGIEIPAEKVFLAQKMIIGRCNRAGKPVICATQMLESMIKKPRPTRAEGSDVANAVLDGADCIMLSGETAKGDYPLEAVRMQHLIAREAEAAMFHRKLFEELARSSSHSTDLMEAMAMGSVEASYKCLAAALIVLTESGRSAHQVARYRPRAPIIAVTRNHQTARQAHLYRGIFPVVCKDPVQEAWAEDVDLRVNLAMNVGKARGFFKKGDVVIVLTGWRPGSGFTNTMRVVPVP

As to `CCOC(=O)C(C)=O` [ethyl pyruvate], the affinity, expressed as Ki, was 3 ± 0.29 mM.
